{"source": "paper PMC8161390", "about": "“Salinity Alters Toxicity of Commonly Used Pesticides in a Model Euryhaline Fish Species (Menidia beryllina)” (Toxics, 2021)", "key": {"[1]": {"set-up": "method as in earlier work", "conditions": "cited from earlier work"}, "[2]": {"assay": "Inland Silverside embryo-to-larva 12-day exposure bioassay (mortality, dose-response)", "conditions": "Menidia beryllina (Inland Silverside), in vivo, <24 hpf embryos to 96 hph larvae, nominal concentrations", "protocol": "(§1) Inland Silverside embryos were removed from the spawning substrate, assessed for fertilization with a VWR VistaVision Dissecting Scope (VWR International, Radnor, PA, USA), and randomly placed in exposure wells with 1 mL of clean artificial seawater (ASW) made from reverse osmosis water and Instant Ocean Sea Salt (Spectrum Brands, Blacksburg, VA, USA). Once all well plates (Supplemental Material and Video S1) were loaded, each test was initiated by pouring the appropriate exposure solution into the well plate until embryos were submerged in 8 mL of exposure solution. Organisms were exposed from <24 h post fertilization (hpf) as embryos to 96 h post hatch (hph) larvae for a total exposure period of 12 days. […] After hatching, fish larvae, which still had their yolk sacs, were fed Gemma Microdiet (Skretting, Westbrook, ME, USA) once per day and were allowed to feed for at least two hours prior to water changes. […] Temperature, pH, salinity, and dissolved oxygen were measured daily before and after water changes using a YSI Professional Plus Quatro water quality meter (YSI Incorporated, Yellow Springs, OH, USA) and API Ammonia Test Kit and can be found in Table S1.\n(§2) This suite of chosen contaminants represents commonly used pesticides with a range of log KOW values, water solubilities, and target organs. Six concentrations (Table 1), including a solvent control, were assessed per test to determine the appropriate dose–response relationships. Initial test concentrations were determined from existing mortality data from the United State EPA ECOTOX database. Where testing on saltwater species was not available, freshwater data were used to supplement. […] The fourth concentration was selected based off existing mortality data and increased by one magnitude to the fifth concentration to ensure mortality. All lower concentrations were decreased by one subsequent magnitude to ensure an appropriate dose response could be achieved.\n(§3) Chemical stock solutions were made at the start of each test from which new exposure solutions were made daily in ASW immediately prior to water changes. There were six replicates per concentration and two organisms per replicate. […] At the end of the exposure period, the final survival data were recorded, and larval fish were humanely sacrificed. Exposures were approved and conducted under the Oregon State University Institutional Animal Care and Use Committee (IACUC) protocol #0035.\n(§4) Statistical analysis was conducted in R version 4.0 (Vienna, Austria) and R Studio version 1.3.1093 (Boston, MA, US). The dose–response analysis consisted of fitting two-parameter log-logistic models to all seven compounds at both salinities (14 fits in total) using maximum likelihood optimization in the package drc version 3.0-1 [42]. […] In the Monte Carlo procedure, the salinity treatments for all of the replicates in the dataset were permuted (keeping the sample sizes for each salinity the same), then new dose–response curves were fit to each salinity treatment. The p-value testing whether the observed difference in LC10 and LC50 values was greater than that expected by random chance was calculated as the proportion of Monte Carlo simulations in which the difference in LC values was greater than the original observed difference. […] All values are reported as the mean ± standard error. All statistical analysis and dose–response curves were made and reported with nominal concentrations."}, "[3]": {"test_system": "Inland Silverside (Menidia beryllina)", "assay": "Inland Silverside embryo-to-larva 12-day exposure bioassay (mortality, dose-response)", "conditions": "<24 hpf embryos to 96 hph larvae, 12 days, nominal concentrations; for 5 PSU LC10: 5 PSU salinity; for 15 PSU LC10: 15 PSU salinity", "protocol": "as §1, §2, §3, §4"}, "[4]": {"test_system": "Rainbow Trout (Oncorhynchus mykiss)", "conditions": "freshwater; 96-h acute; range of minimum to maximum reported LC50 values; ref U.S. EPA ECOTOX database; cited from earlier work"}, "[5]": {"conditions": "cited from earlier work"}, "[6]": {"set-up": "method as in PMID 18829159", "conditions": "reported environmental persistence; cited from earlier work"}, "[7]": {"conditions": "irradiation of a 300 W mercury bulb, cited from earlier work"}}, "note": "Where two headings read alike, the source gives them in different places.", "data": [{"smiles": "Cc1c(COC(=O)[C@@H]2[C@H](/C=C(\\Cl)C(F)(F)F)C2(C)C)cccc1-c1ccccc1", "note": "(racemic) [Bifenthrin, bifenthrin]", "values": [{"measurement": "Water Solubility", "setting": "[1]", "result": 0.1, "unit": "µg/mL"}, {"measurement": "LC50 at 12 days", "setting": "[2]; 5 PSU LC50, 5 PSU salinity", "result": 0.16, "unit": "ng/mL"}, {"measurement": "LC50 at 12 days", "setting": "[2]; 15 PSU LC50, 15 PSU salinity", "result": 0.12, "unit": "ng/mL"}, {"measurement": "5 PSU LC10", "setting": "[3]", "result": 0.0227, "unit": "ng/mL"}, {"measurement": "15 PSU LC10", "setting": "[3]", "result": 0.00533, "unit": "ng/mL"}, {"measurement": "FW LC50", "setting": "[4]", "result": "0.15 to 14.7", "unit": "ng/mL"}, {"measurement": "log KOW", "setting": "[5]", "result": 6.6}]}, {"smiles": "CCOP(=S)(OCC)Oc1nc(Cl)c(Cl)cc1Cl", "note": "[Chlorpyrifos, chlorpyrifos]", "values": [{"measurement": "LC50 at 12 days", "setting": "[2]; 5 PSU LC50, 5 PSU salinity", "result": 8.03, "unit": "ng/mL"}, {"measurement": "LC50 at 12 days", "setting": "[2]; 15 PSU LC50, 15 PSU salinity", "result": 2.4, "unit": "ng/mL"}, {"measurement": "5 PSU LC10", "setting": "[3]", "result": 0.137, "unit": "ng/mL"}, {"measurement": "15 PSU LC10", "setting": "[3]", "result": 0.0393, "unit": "ng/mL"}, {"measurement": "FW LC50", "setting": "[4]", "result": "<1 to 301", "unit": "ng/mL"}, {"measurement": "log KOW", "setting": "[5]", "result": 4.7}]}, {"smiles": "Nc1c(Cl)cc([N+](=O)[O-])cc1Cl", "note": "[Dicloran, dicloran]", "values": [{"measurement": "Water Solubility", "setting": "[1]", "result": 6.3, "unit": "µg/mL"}, {"measurement": "log KOW", "setting": "[5]", "result": 2.8}]}, {"smiles": "CCCCC(C#N)(Cn1cncn1)c1ccc(Cl)cc1", "note": "(centres unmarked) [Myclobutanil, myclobutanil]", "values": [{"measurement": "Water Solubility", "setting": "[1]", "result": 132, "unit": "µg/mL"}, {"measurement": "LC50 at 12 days", "setting": "[2]; 5 PSU LC50, 5 PSU salinity", "result": 3760, "unit": "ng/mL"}, {"measurement": "LC50 at 12 days", "setting": "[2]; 15 PSU LC50, 15 PSU salinity", "result": 1550, "unit": "ng/mL"}, {"measurement": "FW LC50", "setting": "[4]", "result": "4200 to 5270", "unit": "ng/mL"}, {"measurement": "log KOW", "setting": "[5]", "result": 2.8}]}, {"smiles": "C[n+]1ccc(-c2cc[n+](C)cc2)cc1", "note": "[Paraquat, paraquat dichloride hydrate]", "values": [{"measurement": "Water Solubility", "setting": "[1]", "result": 620000, "unit": "µg/mL"}, {"measurement": "LC50 at 12 days", "setting": "[2]; 5 PSU LC50, 5 PSU salinity", "result": 37500, "unit": "ng/mL"}, {"measurement": "LC50 at 12 days", "setting": "[2]; 15 PSU LC50, 15 PSU salinity", "result": 18100, "unit": "ng/mL"}, {"measurement": "5 PSU LC10", "setting": "[3]", "result": 54.7, "unit": "ng/mL"}, {"measurement": "15 PSU LC10", "setting": "[3]", "result": 24.5, "unit": "ng/mL"}, {"measurement": "FW LC50", "setting": "[4]", "result": "15000 to 38680", "unit": "ng/mL"}, {"measurement": "log KOW", "setting": "[5]", "result": "−4.5"}, {"measurement": "environmental half-life", "setting": "[6]", "result": "around two"}]}, {"smiles": "CCCC(Cn1cncn1)c1ccc(Cl)cc1Cl", "note": "(centres unmarked) [Penconazole, penconazole]", "values": [{"measurement": "LC50 at 12 days", "setting": "[2]; 5 PSU LC50, 5 PSU salinity", "result": 107, "unit": "ng/mL"}, {"measurement": "LC50 at 12 days", "setting": "[2]; 15 PSU LC50, 15 PSU salinity", "result": 20.2, "unit": "ng/mL"}, {"measurement": "5 PSU LC10", "setting": "[3]", "result": 0.235, "unit": "ng/mL"}, {"measurement": "15 PSU LC10", "setting": "[3]", "result": 0.0244, "unit": "ng/mL"}, {"measurement": "log KOW", "setting": "[5]", "result": 3.7}]}, {"smiles": "CC(C)(C)C(=O)C(Oc1ccc(Cl)cc1)n1cncn1", "note": "(centres unmarked) [Triadimefon, triadimefon]", "values": [{"measurement": "half-life", "setting": "[7]; distilled water", "result": 0.9, "unit": "h"}, {"measurement": "half-life", "setting": "[7]; seawater", "result": 2.97, "unit": "h"}, {"measurement": "Water Solubility", "setting": "[1]", "result": 64, "unit": "µg/mL"}, {"measurement": "log KOW", "setting": "[5]", "result": 3.2}]}, {"smiles": "CC1(C)C(C=C(Cl)Cl)C1C(=O)OCc1cccc(Oc2ccccc2)c1", "note": "(centres unmarked) [permethrin]", "values": [{"measurement": "log KOW", "setting": "[5]; values quoted in discussion of Delta smelt study", "result": 6.9}]}]}
